Assay results from patent US4111955A, “N-Trihalomethanesulfenyl carbamoyloximino di-sulfur heterocyclic compounds” (priority 1976, dated 1978).
≈ marks a conversion by molar mass, not a printed value.

Assays:
Format in all cases: in vivo
[1] = tested on: house flies (Musca domestica, L.); experiment: Fly Bait Test; design: key to pesticidal activity rating, Housefly: A: excellent control; B: partial control; C: no control
Procedure: Four to 6 day old adult house flies (Musca domestica, L.), reared according to the specifications of the Chemical Specialities Manufacturing Association (Blue Book, McNair-Dorland Co., N.Y. 1954; pages 243-244, 261) under controlled conditions of 80°±5° F. and 50±5 percent relative humidity, were the test insects. The flies were immobilized by anesthetizing with carbon dioxide and twenty five immobilized individuals, males and females, were transferred to a cage consisting of a standard food strainer about 5 inches in diameter which was inverted over a wrapping-paper-covered surface. The test compounds were formulated by diluting the stock suspension with a 10 percent (by weight) sugar solution to give a suspension containing 500 parts of test compound per million parts of final formulation, by weight. Ten milliliters of the test formulation were added to a souffle cup containing a 1-inch square of an absorbent cotton pad. This bait cup was introduced and centered on the blotting paper under the food strainer prior to admitting the anesthetized flies. The caged flies were allowed to feed on the bait for 24 hours, at a temperature of 80°±5° F. and the relative humidity of 50±5 percent.
(§1) In these tests the pesticidal activity of the compounds against aphid, mite, Southern Armyworm, Bean Beetle and House fly was rated as follows:
(§2) The LD50 values shown in the above Table II were determined by testing the compositions over an appropriate concentration range obtained by serial dilution of the stock suspension with water. The percent kill was plotted on log-probit graph paper versus parts per million concentration, and the LD50 read from an eye-fitted line drawn through the resultant points.

[2] = tested on: two-spotted mite (Tetranychus urticae Koch); experiment: Mite Foliage Spray Test; design: key to pesticidal activity rating, Mite: A: excellent control; B: partial control; C: no control
Procedure: Adults and nymphal stages of the two-spotted mite (Tetranychus urticae Koch), reared on Tendergreen bean plants at 80±5 percent relative humidity, were the test organisms. Infested leaves from a stock culture were placed on the primary leaves of two bean plants 6 to 8 inches in height, growing in a 21/2 inch clay pot. 150-200 Mites, a sufficient number for testing, transferred from the excised leaves to the fresh plants in a period of 24 hours. Following the 24 hour transfer period, the excised leaves were removed from the infested plants. The test compounds were formulated by diluting the stock suspension with water to give a suspension containing 500 parts of test compound per million parts of final formulation. The potted plants (one pot per compound) were placed on a revolving turntable and sprayed with 100-110 milliliters of test compound formulation by use of a DeVilbiss spray gun set at 40 psig. air pressure. This application, which lasted 25 seconds, was sufficient to wet the plants to run-off. As a control, 100-110 milliliters of a water solution containing acetone and emulsifier in the same concentrations as the test compound formulation, but containing no test compound, were also sprayed on infested plants. The sprayed plants were held at 80±5 percent relative humidity for 6 days, after which a mortality count of motile forms was made. Microscopic examination for motile forms was made on the leaves of the test plants. Any individual which was capable of locomotion upon prodding was considered living.
as §1, §2

[3] = tested on: rat; experiment: Peroral toxicity to mammals (rat); conditions: fraction of the toxicity of the methylcarbamoyl compound; rat P.O. LD50
Procedure: (§3) Certain of these compositions were also evaluated to determine their peroral toxicity to mammals. The animal selected for this experiment was the rat. The test results obtained are expressed in terms of the number of milligrams of composition per kilogram of weight of the animal required to achieve a mortality rate of 50 percent (LD50).

[4] = Peroral toxicity to mammals (rat); conditions: in vivo, po; rat, peroral, Table II; read-out: Rat P.O. LD50
Procedure: as §3

[5] = tested on: southern armyworm (Prodenia eridania, (Cram.)); experiment: Southern Armyworm Leaf Spray Test; design: key to pesticidal activity rating, Armyworm: A: excellent control; B: partial control; C: no control
Procedure: Larvae of the southern armyworm (Prodenia eridania, (Cram.)), reared on Tendergreen bean plants at a temperature of 80°±5° F. and a relative humidity of 50±5 percent, constituted the test insects.
The test compounds were formulated by diluting the stock suspension with water to give a suspension containing 500 parts of test compound per million parts of final formulation. Potted Tendergreen bean plants of standard height and age were placed on a revolving turntable and sprayed with 100-110 milliliters of test compound formulation by use of a DeVilbiss spray gun set at 10 psig air pressure. This application, which lasted 25 seconds, was sufficient to wet plants to run-off. As a control, 100-110 milliliters of a water-acetone-emulsifier solution containing no test compound were also sprayed on infested plants. When dry, the paired leaves were separated and each one was placed in a 9 centimeter Petri dish lined with moistened filter paper. Five randomly selected larvae were introduced into each dish and the dishes were closed. The closed dishes were labeled and held at 80°-85° F. for 3 days. Although the larvae could easily consume the whole leaf within 24 hours, no more food was added. Larvae which were unable to move the length of the body, even upon stimulation by prodding, were considered dead. Percent mortality was recorded for various concentration levels.
as §1, §2

[6] = tested on: Mexican bean beetle (Epilachna varivestis, Muls.); experiment: Mexican Bean Beetle Leaf Spray Test; design: key to pesticidal activity rating, Bean beetle: A: excellent control; B: partial control; C: no control
Procedure: Fourth instar larvae of the Mexican bean beetle (Epilachna varivestis, Muls.), reared on Tendergreen bean plants at a temperature of 80°±5° F. and 50±5 percent relative humidity, were the test insects.
The test compounds were formulated by diluting the stock suspension with water to give a suspension containing 500 parts of test compound per million parts of final formulation. Potted Tendergreen bean plants of standard height and age were placed on a revolving turntable and sprayed with 100-110 milliliters of test compound formulation by use of a DeVilbiss spray gun set at 10 psig air pressure. This application, which lasted 25 seconds, was sufficient to wet plants to run-off. As a control, 100-110 milliliters of a water-acetone-emulsifier solution containing no test compound were also sprayed on infested plants. When dry, the paired leaves were separated and each was placed in a 9 centimeter Petri dish lined with moistened filter paper. Five randomly selected larvae were introduced into each dish, and the dishes were closed. The closed dishes were labeled and held at a temperature of 80°±5° F. for 3 days. Although the larvae could easily consume the leaf within 24 to 48 hours, no more food was added. Larvae which were unable to move the length of the body, even upon stimulation, were considered dead.
as §1, §2

SMILES: CN(SC(Cl)(Cl)Cl)C(=O)ON=C1CSCCS1 [2-[(N-METHYL-N-TRICHLOROMETHANESULFENYL)-CARBAMOYLOXIMINO]-1,4-DITHIANE]
- pesticidal activity rating, Housefly ([1]; 500 parts per million, 24 hours): A
- LC50 ([1]; Musca domestica, 24 h, Table II, read-out: Insect Toxicity, LD50, House fly): 2 µg/mL (≈ 5.62 µM)
- pesticidal activity rating, Mite ([2]; 500 parts per million, 6 days): A
- LC50 ([2]; Tetranychus urticae, foliar, Table II, read-out: Insect Toxicity, LD50, Mite): 7 µg/mL (≈ 19.7 µM)
- mammalian toxicity relative to the methylcarbamoyl compound [3]: 1/10
- LD50 [4]: 149 mg/kg
- pesticidal activity rating, Armyworm ([5]; 500 parts per million, 3 days): A
- LC50 ([5]; Spodoptera eridania, 72 h, Table II, read-out: Insect Toxicity, LD50, Armyworm): 52 µg/mL (≈ 146 µM)
- LC50 ([6]; Epilachna varivestis, 72 h, leaf spray, Table II, read-out: Insect Toxicity, LD50, Mexican Bean beetle): 10 µg/mL (≈ 28.1 µM)
- insect toxicity on bean-beetle relative to the methylcarbamoyl composition ([6]; from LD50 values of Table II): five-fold improvement
- pesticidal activity rating, Bean beetle ([6]; leaf spray, 500 parts per million, 3 days): A
